The record followed here is patent US20230277534A1 (Plexxikon Inc., priority 2011, published 2023).

This assay concerns the target B-Raf V600E (Homo sapiens (Human), UniProt P15056, V600E). In words: B-Raf V600E kinase biochemical activity assay (AlphaScreen, biotin-MEK1 substrate). As to conditions: 100 μM ATP. As for the experimental part: Assays for biochemical and cell based activity are known in the art, for example, as described in PCT publication WO 2007/002433, the disclosure of which is hereby incorporated by reference as it relates to such assays. For example, the biochemical activity IC50 values are determined with respect to inhibition of B-Raf V600E kinase activity or p-Erk kinase activity, where inhibition of phosphorylation of a peptide substrate is measured as a function of compound concentration. Compounds to be tested are diluted in dimethyl sulfoxide to a concentration of 0.1 mM. These are serially diluted 15 μL into 30 μL of dimethyl sulfoxide seven times in 96 well plates for a total of 8 dilution points, and for each dilution point 1 μL is added to a well of an assay plate. Plates are prepared such that each well in a 384 well plate contains 1 μL of compound in 10 μL volume with 0.1 ng Raf enzyme (i.e. any of B-Raf, c-Raf-1 or B-Raf V600E, Upstate Biotechnology or prepared by methods known to one of skill in the art), 50 mM HEPES, pH 7.0, 50 mM NaCl, 2 mM MgCl2, 1 mM MnCl2, 0.01% Tween-20, 1 mM DTT, and 100 nM biotin-MEK1 as substrate. The reaction is started with addition of 10 μL of 200 μM ATP (i.e. final 100 μM ATP). After incubation of the kinase reaction for 45 minutes at room temperature, 5 μL/well of Stop Solution is added (25 mM Hepes pH 7.5, 100 mM EDTA, 0.01% BSA with donor beads (Streptavidin coated beads, Perkin Elmer), acceptor beads (Protein A coated, Perkin Elmer), and anti phosphor MEK1/2 antibody (CellSignal), each at final concentration 10 μg/mL). The plates are incubated for 3 hours at room temperature and read on Envision reader (Perkin Elmer). Phosphorylation of Mek1 results in binding of the anti-phosphor-MEK1/2antibody and association of the donor and acceptor beads such that signal correlates with kinase activity. The signal vs. compound concentration is used to determine the IC50.
(In general: In Alpha technology, singlet oxygen from a donor bead excites a nearby acceptor bead.)

Bounds are passed on as bounds.

B-Raf V600E, sequence (P15056 whole entry V600E): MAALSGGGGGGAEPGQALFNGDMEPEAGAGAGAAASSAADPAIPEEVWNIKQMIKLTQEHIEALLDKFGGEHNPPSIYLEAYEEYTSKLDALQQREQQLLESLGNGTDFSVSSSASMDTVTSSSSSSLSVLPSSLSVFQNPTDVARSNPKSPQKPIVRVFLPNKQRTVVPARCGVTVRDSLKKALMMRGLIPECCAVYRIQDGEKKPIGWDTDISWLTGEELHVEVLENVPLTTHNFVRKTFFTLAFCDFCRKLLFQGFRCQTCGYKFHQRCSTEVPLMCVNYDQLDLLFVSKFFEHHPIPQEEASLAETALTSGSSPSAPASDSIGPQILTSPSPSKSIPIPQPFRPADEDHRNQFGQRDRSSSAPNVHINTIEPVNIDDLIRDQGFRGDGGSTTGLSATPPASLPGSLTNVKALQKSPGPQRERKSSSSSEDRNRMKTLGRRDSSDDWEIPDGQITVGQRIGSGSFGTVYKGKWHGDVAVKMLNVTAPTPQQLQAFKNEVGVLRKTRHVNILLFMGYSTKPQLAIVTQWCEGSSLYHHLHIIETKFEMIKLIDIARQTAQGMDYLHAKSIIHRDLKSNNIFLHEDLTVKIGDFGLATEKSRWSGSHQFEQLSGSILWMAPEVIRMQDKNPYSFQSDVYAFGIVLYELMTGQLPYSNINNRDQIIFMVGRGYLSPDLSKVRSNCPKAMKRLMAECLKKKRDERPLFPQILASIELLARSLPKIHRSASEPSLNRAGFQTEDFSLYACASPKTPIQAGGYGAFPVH

Usually IC50 stands for the point on the concentration scale where inhibition reaches its midpoint. Lower therefore signals greater potency in that assay. `COC(=O)CCS(=O)(=O)Nc1cccc(C(=O)c2c[nH]c3ncc(-c4cnc(OC)nc4)cc23)c1F` [Compound P-0066, methyl 3-[[2-fluoro-3-[5-(2-methoxypyrimidin-5-yl)-1H-pyrrolo[2,3-b]pyridine-3-carbonyl]phenyl]sulfamoyl]propanoate]: the IC50 was below 0.1 µM.
To `COc1ncc(-c2cnc3[nH]cc(C(=O)c4cccc(NS(=O)(=O)C5CC5)c4F)c3c2)cn1` [Compound P-0067, N-[2-fluoro-3-[5-(2-methoxypyrimidin-5-yl)-1H-pyrrolo[2,3-b]pyridine-3-carbonyl]phenyl]cyclopropanesulfonamide] belongs below 0.1 µM.
Turning to `CCNS(=O)(=O)Nc1cccc(C(=O)c2c[nH]c3ncc(-c4cnc(OC)nc4)cc23)c1F` [Compound P-0068, [3-(ethylsulfamoylamino)-2-fluoro-phenyl]-[5-(2-methoxypyrimidin-5-yl)-1H-pyrrolo[2,3-b]pyridin-3-yl]methanone], the IC50 is below 0.1 µM.
To `CCNS(=O)(=O)Nc1cccc(C(=O)c2c[nH]c3ncc(I)cc23)c1F` [Compound P-0069, [3-(ethylsulfamoylamino)-2-fluoro-phenyl]-(5-iodo-1H-pyrrolo[2,3-b]pyridin-3-yl)methanone] belongs below 0.1 µM.
Regarding `COc1ncc(-c2cnc3[nH]cc(C(=O)c4cccc(NS(=O)(=O)N(C)C(C)C)c4F)c3c2)cn1` [Compound P-0075, 3-[2-fluoro-3-[[isopropyl(methyl)sulfamoyl]amino]benzoyl]-5-(2-methoxypyrimidin-5-yl)-1H-pyrrolo[2,3-b]pyridine], the IC50 was above 0.1 µM.
As for `CCCN(C)S(=O)(=O)Nc1ccc(F)c(C(=O)c2c[nH]c3ncc(-c4ccc(C5(C#N)CC5)cc4)cc23)c1F` [Compound P-0079, 5-[4-(1-cyanocyclopropyl)phenyl]-3-[2,6-difluoro-3-[[methyl(propyl)sulfamoyl]amino]benzoyl]-1H-pyrrolo[2,3-b]pyridine], the figure is below 0.1 µM; as for `CCCN(C)S(=O)(=O)Nc1cccc(C(=O)c2c[nH]c3ncc(-c4cnc(NC5CC5)nc4)cc23)c1F` [Compound P-0082, 5-[2-(cyclopropylamino)pyrimidin-5-yl]-3-[2-fluoro-3-[[methyl(propyl)sulfamoyl]amino]benzoyl]-1H-pyrrolo[2,3-b]pyridine], below 0.1 µM; as for `COc1ncc(-c2cnc3[nH]cc(C(=O)c4cccc(NS(=O)(=O)N(C)CC5CC5)c4F)c3c2)cn1` [Compound P-0083, 3-[3-[[cyclopropylmethyl(methyl)sulfamoyl]amino]-2-fluoro-benzoyl]-5-(2-methoxypyrimidin-5-yl)-1H-pyrrolo[2,3-b]pyridine], below 0.1 µM.
To `CCCN(C)S(=O)(=O)Nc1cccc(C(=O)c2c[nH]c3ncc(-c4cnc(C5CC5)nc4)cc23)c1F` [Compound P-0086, 5-(2-cyclopropylpyrimidin-5-yl)-3-[2-fluoro-3-[[methyl(propyl)sulfamoyl]amino]benzoyl]-1H-pyrrolo[2,3-b]pyridine] belongs below 0.1 µM.
As for `CCN(C)S(=O)(=O)Nc1cccc(C(=O)c2c[nH]c3ncc(-c4ccc(C5CC5)nc4)cc23)c1F` [Compound P-0087, 5-(6-cyclopropyl-3-pyridyl)-3-[3-[[ethyl(methyl)sulfamoyl]amino]-2-fluoro-benzoyl]-1H-pyrrolo[2,3-b]pyridine], the figure is below 0.1 µM; as for `N#Cc1ncc(-c2cnc3[nH]cc(C(=O)c4cccc(NS(=O)(=O)N5CCCC5)c4F)c3c2)cn1` [Compound P-0091, N-[3-[5-(2-cyanopyrimidin-5-yl)-1H-pyrrolo[2,3-b]pyridine-3-carbonyl]-2-fluoro-phenyl]pyrrolidine-1-sulfonamide], below 0.1 µM; as for `CN(C)S(=O)(=O)Nc1cccc(C(=O)c2c[nH]c3ncc(-c4cnc(C#N)nc4)cc23)c1F` [Compound P-0096, 5-(2-cyanopyrimidin-5-yl)-3-[3-(dimethylsulfamoylamino)-2-fluoro-benzoyl]-1H-pyrrolo[2,3-b]pyridine], below 0.1 µM.
`CN(C)S(=O)(=O)Nc1cccc(C(=O)c2c[nH]c3ncc(-c4ccc(C(C)(C)O)cc4)cc23)c1F` [Compound P-0103, 3-[3-(dimethylsulfamoylamino)-2-fluoro-benzoyl]-5-[4-(1-hydroxy-1-methyl-ethyl)phenyl]-1H-pyrrolo[2,3-b]pyridine] returned an IC50 below 0.1 µM.
As for `CC(C)(O)c1ccc(-c2cnc3[nH]cc(C(=O)c4cccc(NS(=O)(=O)N5CCCC5)c4F)c3c2)cc1` [Compound P-0105, N-[2-fluoro-3-[5-[4-(1-hydroxy-1-methyl-ethyl)phenyl]-1H-pyrrolo[2,3-b]pyridine-3-carbonyl]phenyl]pyrrolidine-1-sulfonamide], the figure is below 0.1 µM.
To `CCN(C)S(=O)(=O)Nc1cccc(C(=O)c2c[nH]c3ncc(-c4cnc(N5CCCC5)nc4)cc23)c1F` [Compound P-0108, 3-[3-1[[ethyl(methyl)sulfamoyl]amino]-2-fluoro-benzoyl]-5-(2-pyrrolidin-1-ylpyrimidin-5-yl)-1H-pyrrolo[2,3-b]pyridine] belongs below 0.1 µM.
To `CCCNS(=O)(=O)Nc1cccc(C(=O)c2c[nH]c3ncc(C)cc23)c1F` [Compound P-0223, [2-fluoro-3-(propylsulfamoylamino)phenyl]-(5-methyl-1H-pyrrolo[2,3-b]pyridin-3-yl)methanone] belongs above 0.1 µM.
On to `O=C(c1cccc(NS(=O)(=O)N2CCCC2)c1F)c1c[nH]c2ncc(-c3cnc(NC4CC4)nc3)cc12` [Compound P-0232, N-[3-[5-[2-(cyclopropylamino)pyrimidin-5-yl]-1H-pyrrolo[2,3-b]pyridine-3-carbonyl]-2-fluoro-phenyl]pyrrolidine-1-sulfonamide], for which the IC50 was below 0.1 µM.
To `CCOc1cnc(-c2cnc3[nH]cc(C(=O)c4c(F)ccc(NS(=O)(=O)N(C)C)c4F)c3c2)cn1` [Compound P-0244, 3-[3-(dimethylsulfamoylamino)-2,6-difluoro-benzoyl]-5-(5-ethoxypyrazin-2-yl)-1H-pyrrolo[2,3-b]pyridine] belongs below 0.1 µM; to `CN(C)S(=O)(=O)Nc1cccc(C(=O)c2c[nH]c3ncc(-c4ccc(C(C)(C)C#N)cc4)cc23)c1F` [Compound P-0245, 5-[4-(1-cyano-1-methyl-ethyl)phenyl]-3-[3-(dimethylsulfamoylamino)-2-fluoro-benzoyl]-1H-pyrrolo[2,3-b]pyridine], below 0.1 µM.
As for `COC(=O)C1(c2ccc(-c3cnc4[nH]cc(C(=O)c5cccc(NS(=O)(=O)N6CCCC6)c5F)c4c3)cc2)CC1` [Compound P-0254, methyl 1-[4-[3-[2-fluoro-3-(pyrrolidin-1-ylsulfonylamino)benzoyl]-1H-pyrrolo[2,3-b]pyridin-5-yl]phenyl]cyclopropanecarboxylate], the figure is below 0.1 µM; as for `CN(C)S(=O)(=O)Nc1ccc(F)c(C(=O)c2c[nH]c3ncc(-c4ccc(C(C)(C)C#N)cc4)cc23)c1F` [Compound P-0255, 5-[4-(1-cyano-1-methyl-ethyl)phenyl]-3-[3-(dimethylsulfamoylamino)-2,6-difluoro-benzoyl]-1H-pyrrolo[2,3-b]pyridine], below 0.1 µM; as for `CCOC(=O)C1CCCN1S(=O)(=O)Nc1cccc(C(=O)c2c[nH]c3ncc(-c4cnc(OC)nc4)cc23)c1F` (stereo not shown) [Compound P-0257, ethyl 1-[[2-fluoro-3-[5-(2-methoxypyrimidin-5-yl)-1H-pyrrolo[2,3-b]pyridine-3-carbonyl]phenyl]sulfamoyl]pyrrolidine-2-carboxylate], above 0.1 µM.
To `CCN(C)S(=O)(=O)Nc1ccc(F)c(C(=O)c2c[nH]c3ncc(-c4cnc(N5CCN(C(=O)OC(C)(C)C)CC5)nc4)cc23)c1F` [Compound P-0264, tert-butyl 4-[5-[3-[3-[[ethyl(methyl)sulfamoyl]amino]-2,6-difluoro-benzoyl]-1H-pyrrolo[2,3-b]pyridin-5-yl]pyrimidin-2-yl]piperazine-1-carboxylate] belongs below 0.1 µM; to `O=C(c1c(F)ccc(NS(=O)(=O)N2CCCC2)c1F)c1c[nH]c2ncc(-c3cnc(N4CCOCC4)nc3)cc12` [Compound P-0266, N-[2,4-difluoro-3-[5-(2-morpholinopyrimidin-5-yl)-1H-pyrrolo[2,3-b]pyridine-3-carbonyl]phenyl]pyrrolidine-1-sulfonamide], below 0.1 µM; to `CC(=O)N(C)C1CCN(S(=O)(=O)Nc2cccc(C(=O)c3c[nH]c4ncc(-c5cnc(C6CC6)nc5)cc34)c2F)C1` (stereo not shown) [Compound P-0267, N-[1-[[3-[5-(2-cyclopropylpyrimidin-5-yl)-1H-pyrrolo[2,3-b]pyridine-3-carbonyl]-2-fluoro-phenyl]sulfamoyl]pyrrolidin-3-yl]-N-methyl-acetamide], above 0.1 µM.
